Values quoted from earlier work as cited in US20230167505A1, “CIRCULATING TUMOR DNA AS A BIOMARKER FOR LEUKEMIA TREATMENT” (Cardiff Oncology, Inc., priority 2020, published 2023).

Conditions: in vivo; cited from earlier work

CC[C@@H]1C(=O)N(C)c2cnc(Nc3ccc(C(=O)N[C@H]4CC[C@H](N5CCN(CC6CC6)CC5)CC4)cc3OC)nc2N1C(C)C [volasertib]
half-life: ~120 h
